In general, IC50 refers to the point on the concentration scale where inhibition reaches its midpoint.

The text below walks through data of patent publication US10308667B2, “Oxadiazolopyridine derivatives for use as ghrelin O-acyl transferase (GOAT) inhibitors” (Boehringer Ingelheim International GmbH, priority 2016, dated 2019).

For the assay, the target named is human GOAT (Homo sapiens (Human), UniProt Q96T53). Description: Determination of hGOAT Activity in HEK293 Cells after Incubation with Test Compound. The class given is cell-based. To be noted: HEK293 cells stably transfected with preproghrelin and human GOAT; octanoate-BSA 100 μM; acyl-ghrelin in medium by ELISA after 5 hours. The protocol: Determination of hGOAT Activity in HEK293 Cells after Incubation with Test Compound
HEK293 cells stably transfected with two expression vectors, one coding for preproghrelin cDNA and a second for the expression of human GOATcDNA are used as a cellular model. After feeding the cells with octanoic acid for 5 hours, acyl-ghrelin is measured in cell culture medium by an ELISA procedure.
Cellline: Hek293 hGOAT/PPGhrl Clone #1B8Sodium octanoate, Sigma, Cat.-No. C5038
BD Poly-D-Lysin 384-well Plates, black-clear polystyrene BD Bioscience Cat.-No. […] ELISA human acylated Ghrelin Kit purchased from Bertin Pharman (detailed composition of buffers e.g. wash-puffer, ELISA buffer not known)
Cells are plated with a density of 5000 cells/well in 384-well poly-D-lysin plates and incubated for 1 day at 37° C., 5% CO2 in DMEM medium, 10% FCS, 1×NEAA, Puromycin (0.5 μg/ml) and G418 (1 mg/ml). Then the medium is changed to a identical medium without FCS and containing Octanoate-BSA (final concentration 100 μM each) and compound in DMSO (final DMSO concentration 0.3%). After incubation for 5 hours acylghrelin in the medium is measured by ELISA
The medium sample is diluted 1:25 in Elisa buffer, A 25 ul aliquot is transferred to a 384-well ELISA plate previously washed 4 times with 100 μL wash buffer, and 25 μl tracer-solution is added. After incubation overnight (˜20 h) at 4° C. temperature the plate is washed 4 times with 100 μl wash-buffer per well. Finally 50 μl Ellman's reagent is added to each well and the plate is incubated in the dark for 20 minutes. The absorbance is measured at 405 nm in an Envision multilabel reader and the amount of acylated ghrelin is calculated according to a acylated ghrelin standard curve provided in the same plate.
The analysis of the data is performed by calculation of the percentage of acyl-ghrelin produced in the presence of test compound compared to the amount of acyl-ghrelin produced in the vehicle control samples. An inhibitor of the GOAT enzyme will give values between 100% CTL (no inhibition) and 0% CTL (complete inhibition). IC50 values are calculated with Assay Explorer or other suited software based on curve fitting of results of 8 different compound concentrations.

Chain of human GOAT (Q96T53 whole entry): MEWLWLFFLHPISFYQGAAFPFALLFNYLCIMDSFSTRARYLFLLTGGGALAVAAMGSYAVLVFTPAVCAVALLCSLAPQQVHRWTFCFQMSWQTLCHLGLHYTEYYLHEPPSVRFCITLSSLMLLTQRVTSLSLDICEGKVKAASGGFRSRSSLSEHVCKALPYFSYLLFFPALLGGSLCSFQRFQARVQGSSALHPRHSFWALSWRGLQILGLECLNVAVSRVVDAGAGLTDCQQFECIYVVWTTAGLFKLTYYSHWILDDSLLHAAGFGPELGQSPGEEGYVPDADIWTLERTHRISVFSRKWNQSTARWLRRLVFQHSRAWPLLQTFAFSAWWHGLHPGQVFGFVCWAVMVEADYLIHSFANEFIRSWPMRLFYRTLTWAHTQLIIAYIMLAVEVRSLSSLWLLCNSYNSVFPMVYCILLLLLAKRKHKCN

`Cc1nc2nonc2c(N)c1Cc1cc(C(N)=O)ccn1` [Example 29, 2-(7-Amino-5-methyl-[1,2,5]oxadiazolo[3,4-b]pyridin-6-ylmethyl)-isonicotinamide] showed an IC50 of 16 nM.
The result for `Cc1nc2nonc2c(N)c1Cc1ccc(Br)c(NC2CC2)n1` [Example 125, 6-(5-Bromo-6-cyclopropylamino-pyridin-2-ylmethyl)-5-methyl-[1,2,5]oxadiazolo[3,4-b]pyridin-7-ylamine] reads 0.038 nM; that for `Cc1nc2nonc2c(N)c1Cc1ccc(OC(F)F)c(N)n1` [Example 119, 6-(6-Amino-5-difluoromethoxy-pyridin-2-ylmethyl)-5-methyl-[1,2,5]oxadiazolo[3,4-b]pyridin-7-ylamine], 0.091 nM.
The result for `Cc1nc2nonc2c(N)c1Cc1ccc(-c2cncs2)c(N)n1` [Example 67, 6-(6-Amino-5-thiazol-5-yl-pyridin-2-ylmethyl)-5-methyl-[1,2,5]oxadiazolo[3,4-b]pyridin-7-ylamine] reads 0.05 nM; that for `Cc1nc2nonc2c(N)c1Cc1ccc(-c2cnccn2)c(N)n1` [Example 69, 6-(6-Amino-5-pyrazin-2-yl-pyridin-2-ylmethyl)-5-methyl-[1,2,5]oxadiazolo[3,4-b]pyridin-7-ylamine], 0.58 nM.
The result for `Cc1nc2nonc2c(N)c1Cc1ccc(F)c(C#N)n1` [Example 25, 6-(7-Amino-5-methyl-[1,2,5]oxadiazolo[3,4-b]pyridin-6-ylmethyl)-3-fluoro-pyridine-2-carbonitrile] reads 4.4 nM; that for `Cc1nc2nonc2c(N)c1Cc1cccc(S(C)(=O)=O)n1` [Example 86, 6-(6-Methanesulfonyl-pyridin-2-ylmethyl)-5-methyl-[1,2,5]oxadiazolo[3,4-b]pyridin-7-ylamine], 19 nM.
Consider `Cc1nc2nonc2c(N)c1Cc1ccc(C(F)(F)F)c(C#N)n1` [Example 48, 6-(7-Amino-5-methyl-[1,2,5]oxadiazolo[3,4-b]pyridin-6-ylmethyl)-3-trifluoromethyl-pyridine-2-carbonitrile], for which the IC50 worked out at 0.18 nM.
The result for `Cc1nc2nonc2c(N)c1Cc1ccc(C2CC2)cn1` [Example 39, 6-[(5-cyclopropylpyridin-2-yl)methyl]-5-methyl-[1,2,5]oxadiazolo[3,4-b]pyridin-7-amine] reads 0.18 nM; that for `Cc1nc2nonc2c(N)c1Cc1ccc(C#N)c(NCC2(C)CCOC2)n1` (stereo not shown) [Example 147, 6-(7-Amino-5-methyl-[1,2,5]oxadiazolo[3,4-b]pyridin-6-ylmethyl)-2-[(3-methyl-tetrahydro-furan-3-ylmethyl)-amino]-nicotinonitrile], 0.25 nM.
Next, `COc1ccc(Cc2c(C)nc3nonc3c2N)nc1` [Example 1, 6-(5-Methoxy-pyridin-2-ylmethyl)-5-methyl-[1,2,5]oxadiazolo[3,4-b]pyridin-7-ylamine]: 1.4 nM.
The result for `Cc1nc2nonc2c(N)c1Cc1ccc(C#N)c(N2CC3(COC3)C2)n1` [Example 137, 6-(7-Amino-5-methyl-[1,2,5]oxadiazolo[3,4-b]pyridin-6-ylmethyl)-2-(2-oxa-6-aza-spiro[3.3]hept-6-yl)-nicotinonitrile] reads 0.054 nM; that for `Cc1nc2nonc2c(N)c1Cc1ccc(Br)c(NCC2(C)COC2)n1` [Example 121, 6-{5-Bromo-6-[(3-methyl-oxetan-3-ylmethyl)-amino]-pyridin-2-ylmethyl}-5-methyl-[1,2,5]oxadiazolo[3,4-b]pyridin-7-ylamine], 0.045 nM; that for `Cc1nc2nonc2c(N)c1Cc1ccc(C#N)c(NCCCF)n1` [Example 149, 6-(7-Amino-5-methyl-[1,2,5]oxadiazolo[3,4-b]pyridin-6-ylmethyl)-2-(3-fluoro-propylamino)-nicotinonitrile], 0.027 nM.
As for `Cc1nc2nonc2c(N)c1Cc1ccc(C#N)c(C#N)n1` [Example 158, 6-(7-Amino-5-methyl-[1,2,5]oxadiazolo[3,4-b]pyridin-6-ylmethyl)-pyridine-2,3-dicarbonitrile], the midpoint of inhibition, the IC50, lay at 1.7 nM.
The result for `Cc1nc2nonc2c(N)c1Cc1ccc(C#N)c(OCC2CC2(F)F)n1` (stereo not shown) [Example 112, 6-(7-Amino-5-methyl-[1,2,5]oxadiazolo[3,4-b]pyridin-6-ylmethyl)-2-(2,2-difluoro-cyclopropylmethoxy)-nicotinonitrile] reads 0.22 nM; that for `Cc1nc2nonc2c(N)c1Cc1ccc(C#N)c(NCCC(F)(F)F)n1` [Example 145, 6-(7-Amino-5-methyl-[1,2,5]oxadiazolo[3,4-b]pyridin-6-ylmethyl)-2-(3,3,3-trifluoro-propylamino)-nicotinonitrile], 0.32 nM; that for `Cc1nc2nonc2c(N)c1Cc1cccc(F)n1` [Example 13, 6-(6-Fluoro-pyridin-2-ylmethyl)-5-methyl-[1,2,5]oxadiazolo[3,4-b]pyridin-7-ylamine], 4.4 nM.
Next, `Cc1nc2nonc2c(N)c1Cc1ccc(C#N)c(N2CC(C)(O)C2)n1` [Example 138, 6-(7-Amino-5-methyl-[1,2,5]oxadiazolo[3,4-b]pyridin-6-ylmethyl)-2-(3-hydroxy-3-methyl-azetidin-1-yl)-nicotinonitrile]: 0.075 nM; `Cc1nc2nonc2c(N)c1Cc1ccc(Br)c(OCC(C)(F)F)n1` [Example 99, 6-[5-Bromo-6-(2,2-difluoro-propoxy)-pyridin-2-ylmethyl]-5-methyl-[1,2,5]oxadiazolo[3,4-b]pyridin-7-ylamine]: 0.072 nM.
The result for `Cc1nc2nonc2c(N)c1Cc1ccc(Br)c(NCC(C)(C)C#N)n1` [Example 127, 3-[6-(7-Amino-5-methyl-[1,2,5]oxadiazolo[3,4-b]pyridin-6-ylmethyl)-3-bromo-pyridin-2-ylamino]-2,2-di methyl-propionitrile] reads 0.1 nM.
The compound `Cc1nc2nonc2c(N)c1Cc1ccc(C#N)c(OC2COC2)n1` [Example 104, 6-(7-Amino-5-methyl-[1,2,5]oxadiazolo[3,4-b]pyridin-6-ylmethyl)-2-(oxetan-3-yloxy)-nicotinonitrile] yielded an IC50 of 0.98 nM.
As to `Cc1nc2nonc2c(N)c1Cc1nc(C#N)cc(C(F)F)n1` [Example 165, 2-(7-amino-5-methyl-[1,2,5]oxadiazolo[3,4-b]pyridin-6-ylmethyl)-6-(difluoromethyl)pyrimidine-4-carbonitrile], it took 14 nM to reach half-maximal inhibition (IC50).
Next, `Cc1nc2nonc2c(N)c1Cc1ccc(N2CCC(F)(F)C2)c(C#N)n1` [Example 150, 6-(7-Amino-5-methyl-[1,2,5]oxadiazolo[3,4-b]pyridin-6-ylmethyl)-3-(3,3-difluoro-pyrrolidin-1-yl)-pyridine-2-carbonitrile]: 2.3 nM; `Cc1nc2nonc2c(N)c1Cc1ccc(S(C)(=O)=O)cn1` [Example 88, 6-(5-Methanesulfonyl-pyridin-2-ylmethyl)-5-methyl-[1,2,5]oxadiazolo[3,4-b]pyridin-7-ylamine]: 3.3 nM; `Cc1nc2nonc2c(N)c1Cc1ccc(C#N)c(NC2CC(F)(F)C2)n1` [Example 140, 6-(7-Amino-5-methyl-[1,2,5]oxadiazolo[3,4-b]pyridin-6-ylmethyl)-2-(3,3-difluoro-cyclobutylamino)-nicotinonitrile]: 0.15 nM.
Next, `Cc1nc2nonc2c(N)c1Cc1ccc(Br)c(S(C)(=O)=O)n1` [Example 161, 6-(5-Bromo-6-methanesulfonyl-pyridin-2-ylmethyl)-5-methyl-[1,2,5]oxadiazolo[3,4-b]pyridin-7-ylamine]: 0.89 nM; `Cc1nc2nonc2c(N)c1Cc1ccc(C#N)c(OCCCF)n1` [Example 108, 6-(7-Amino-5-methyl-[1,2,5]oxadiazolo[3,4-b]pyridin-6-ylmethyl)-2-(3-fluoro-propoxy)-nicotinonitrile]: 0.026 nM; `Cc1nc2nonc2c(N)c1Cc1ncc(Br)c(C(F)(F)F)n1` [Example 83, 6-[5-bromo-4-(trifluoromethyl)pyrimidin-2-yl]methyl-5-methyl-[1,2,5]oxadiazolo[3,4-b]pyridin-7-amine]: 0.077 nM.
The result for `Cc1nc2nonc2c(N)c1Cc1ccc(NCC(F)F)c(C#N)n1` [Example 154, 6-(7-Amino-5-methyl-[1,2,5]oxadiazolo[3,4-b]pyridin-6-ylmethyl)-3-(2,2-difluoro-ethylamino)-pyridine-2-carbonitrile] reads 0.17 nM; that for `Cc1nc2nonc2c(N)c1Cc1ccc(OCCF)c(C#N)n1` [Example 115, 6-(7-Amino-5-methyl-[1,2,5]oxadiazolo[3,4-b]pyridin-6-ylmethyl)-3-(2-fluoro-ethoxy)-pyridine-2-carbonitrile], 1.2 nM.
